{"source": "paper PMC5467694", "about": "(European journal of pharmacology, 2009)", "key": {"[1]": {"tested_on": "Gαi- and Gαs-linked G protein-coupled receptors in whole rat brain membranes", "settings": "ref Satoh et al. (2007); cited from earlier work"}, "[2]": {"tested_on": "recombinant human NAs Neu1–4", "assay": "NA inhibition assay, all 4 recombinant human NAs", "format": "biochemical", "settings": "for partial inhibition of all 4 human NAs: concentrations higher than 1 mM; for inhibition of all 4 human NAs: up to a concentration of 1 mM"}, "[3]": {"tested_on": "native non-human primate brain NA activity (microsomal and membrane fractions)", "assay": "NA inhibition assay, non-human primate brain extracts", "format": "biochemical, Macaca fascicularis"}, "recombinant human Neu3": {"target": "T1, recombinant human Neu3 (Homo sapiens, UniProt Q9UQ49)", "T1 sequence (Q9UQ49 1-428)": "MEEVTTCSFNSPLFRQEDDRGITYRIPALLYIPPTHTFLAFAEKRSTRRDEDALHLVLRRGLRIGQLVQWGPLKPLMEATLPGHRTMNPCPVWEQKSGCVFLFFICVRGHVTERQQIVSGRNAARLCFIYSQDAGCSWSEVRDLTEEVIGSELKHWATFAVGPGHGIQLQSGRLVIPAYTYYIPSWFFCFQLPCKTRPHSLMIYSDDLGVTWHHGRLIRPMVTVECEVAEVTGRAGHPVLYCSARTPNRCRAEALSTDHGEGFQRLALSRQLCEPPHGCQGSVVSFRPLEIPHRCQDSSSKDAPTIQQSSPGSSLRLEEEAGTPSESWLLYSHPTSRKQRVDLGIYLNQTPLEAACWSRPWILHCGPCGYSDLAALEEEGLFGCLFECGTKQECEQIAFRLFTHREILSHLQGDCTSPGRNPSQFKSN", "assay": "NA inhibition assay, recombinant human Neu3", "format": "biochemical"}, "[4]": {"target": "recombinant α1β2γ2 GABAA receptor (Homo sapiens, UniProt P14867+P18507+P47870)", "sequence (P14867 28-456)": "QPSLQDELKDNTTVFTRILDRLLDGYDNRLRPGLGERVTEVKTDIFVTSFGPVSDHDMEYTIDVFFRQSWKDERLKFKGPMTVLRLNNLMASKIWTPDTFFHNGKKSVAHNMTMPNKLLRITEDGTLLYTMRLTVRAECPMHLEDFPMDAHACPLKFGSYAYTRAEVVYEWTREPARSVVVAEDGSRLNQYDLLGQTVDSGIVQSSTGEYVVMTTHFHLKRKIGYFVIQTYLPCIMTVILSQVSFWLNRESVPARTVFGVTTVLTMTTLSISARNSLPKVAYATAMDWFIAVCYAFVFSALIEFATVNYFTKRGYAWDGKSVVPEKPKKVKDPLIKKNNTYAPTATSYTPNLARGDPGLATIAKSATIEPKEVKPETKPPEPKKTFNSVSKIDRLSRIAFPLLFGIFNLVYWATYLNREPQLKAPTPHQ", "sequence (P47870 25-512 limits assumed)": "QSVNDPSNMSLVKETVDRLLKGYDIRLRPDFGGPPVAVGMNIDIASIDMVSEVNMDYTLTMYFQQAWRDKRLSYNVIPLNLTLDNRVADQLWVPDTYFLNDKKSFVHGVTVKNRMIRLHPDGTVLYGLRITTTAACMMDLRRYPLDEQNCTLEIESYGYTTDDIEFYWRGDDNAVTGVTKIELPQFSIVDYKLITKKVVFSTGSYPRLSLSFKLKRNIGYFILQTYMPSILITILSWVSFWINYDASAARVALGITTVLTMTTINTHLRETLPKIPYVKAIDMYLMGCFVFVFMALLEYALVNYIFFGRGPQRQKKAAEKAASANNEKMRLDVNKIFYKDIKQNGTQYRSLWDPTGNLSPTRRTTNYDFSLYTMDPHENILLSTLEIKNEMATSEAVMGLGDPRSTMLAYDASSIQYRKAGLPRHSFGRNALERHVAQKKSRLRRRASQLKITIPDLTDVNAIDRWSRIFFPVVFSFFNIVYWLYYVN", "sequence (P18507 40-475)": "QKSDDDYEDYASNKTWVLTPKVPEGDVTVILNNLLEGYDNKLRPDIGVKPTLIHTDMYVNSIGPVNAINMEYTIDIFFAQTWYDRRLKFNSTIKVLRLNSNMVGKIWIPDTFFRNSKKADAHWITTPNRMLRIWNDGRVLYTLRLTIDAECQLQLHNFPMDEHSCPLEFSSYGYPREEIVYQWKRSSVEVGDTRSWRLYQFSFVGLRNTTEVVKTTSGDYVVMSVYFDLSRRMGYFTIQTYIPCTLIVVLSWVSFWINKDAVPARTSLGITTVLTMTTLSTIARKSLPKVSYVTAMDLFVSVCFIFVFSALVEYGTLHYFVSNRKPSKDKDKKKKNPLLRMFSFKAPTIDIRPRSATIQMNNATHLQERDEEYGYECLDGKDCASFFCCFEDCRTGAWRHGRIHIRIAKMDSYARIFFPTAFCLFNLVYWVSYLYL", "assay": "Electrophysiological GABAA patch-clamp assay", "format": "cell-based"}, "[5]": {"tested_on": "panel of 155 molecular targets unrelated to NAs", "assay": "Selectivity panel of 155 molecular targets unrelated to NAs", "settings": "for pharmacological activity on panel targets: 3 and 30 μM, 50% cut-off for relevance; for low levels of activity, inhibition/stimulation, on eleven targets: at either 3 μM or 30 μM"}, "recombinant human Neu2": {"target": "recombinant human Neu2 (Homo sapiens, UniProt Q9Y3R4)", "sequence (Q9Y3R4 whole entry)": "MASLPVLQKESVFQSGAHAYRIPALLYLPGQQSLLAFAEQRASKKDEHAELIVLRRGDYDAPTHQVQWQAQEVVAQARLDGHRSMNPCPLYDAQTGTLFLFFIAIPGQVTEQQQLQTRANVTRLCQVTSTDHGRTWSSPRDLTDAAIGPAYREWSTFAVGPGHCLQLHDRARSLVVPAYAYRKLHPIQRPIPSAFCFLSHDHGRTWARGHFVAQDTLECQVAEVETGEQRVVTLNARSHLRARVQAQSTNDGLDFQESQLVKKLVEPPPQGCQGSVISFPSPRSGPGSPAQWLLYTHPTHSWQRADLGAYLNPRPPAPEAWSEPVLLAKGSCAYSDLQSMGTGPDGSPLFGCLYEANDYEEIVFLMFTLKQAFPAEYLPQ", "assay": "NA inhibition assay, recombinant human Neu2", "format": "biochemical"}, "recombinant human Neu1": {"target": "recombinant human Neu1 (Homo sapiens, UniProt Q99519)", "assay": "NA inhibition assay, recombinant human Neu1", "format": "biochemical"}, "human Neu1": {"tested_on": "human Neu1", "settings": "read-out: IC50 on human Neu1; recombinant; ref Hata et al. (2008); cited from earlier work"}, "[6]": {"assay": "Steady-state exposure in adults, standard regimen", "format": "in vivo, human", "settings": "75 mg twice daily for 5 days"}, "recombinant human NAs": {"tested_on": "recombinant human NAs", "settings": "concentrations up to 1 mM; ref Hata et al. (2008); cited from earlier work"}, "human Neu3": {"tested_on": "human Neu3", "settings": "read-out: IC50 on human Neu3; recombinant; ref Hata et al. (2008); cited from earlier work"}, "human Neu2": {"tested_on": "human Neu2", "settings": "read-out: IC50 on human Neu2; recombinant; ref Hata et al. (2008); cited from earlier work"}, "recombinant human Neu4": {"target": "T2, recombinant human Neu4 (Homo sapiens, UniProt Q8WWR8)", "T2 sequence (Q8WWR8 1-484)": "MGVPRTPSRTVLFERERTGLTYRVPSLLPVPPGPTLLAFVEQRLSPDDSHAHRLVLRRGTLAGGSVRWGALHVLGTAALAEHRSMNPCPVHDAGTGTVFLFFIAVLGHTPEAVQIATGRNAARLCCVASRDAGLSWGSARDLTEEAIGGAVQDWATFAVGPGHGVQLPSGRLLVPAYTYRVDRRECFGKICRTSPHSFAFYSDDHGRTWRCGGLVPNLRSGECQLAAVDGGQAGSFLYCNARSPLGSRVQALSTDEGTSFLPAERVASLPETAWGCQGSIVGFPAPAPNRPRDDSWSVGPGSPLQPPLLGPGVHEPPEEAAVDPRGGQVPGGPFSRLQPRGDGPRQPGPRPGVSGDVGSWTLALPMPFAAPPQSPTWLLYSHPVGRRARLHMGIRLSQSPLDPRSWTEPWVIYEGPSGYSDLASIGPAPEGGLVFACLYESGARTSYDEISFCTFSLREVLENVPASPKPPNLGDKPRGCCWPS", "assay": "NA inhibition assay, recombinant human Neu4", "format": "biochemical"}, "human Neu4": {"tested_on": "human Neu4", "settings": "read-out: IC50 on human Neu4; recombinant; ref Hata et al. (2008); cited from earlier work"}, "[7]": {"tested_on": "NA activity of different viral strains", "settings": "read-out: IC50 on NA activity of different viral strains; ref Hata et al. (2008); cited from earlier work"}, "[8]": {"tested_on": "NA activity in rat brain tissue", "assay": "NA inhibition assay, rat brain-derived tissue", "format": "biochemical", "settings": "concentrations up to 1 mM"}, "[9]": {"target": "recombinant influenza virus NA (Influenza A virus, UniProt Q30NP8)", "sequence (Q30NP8 whole entry, looked up)": "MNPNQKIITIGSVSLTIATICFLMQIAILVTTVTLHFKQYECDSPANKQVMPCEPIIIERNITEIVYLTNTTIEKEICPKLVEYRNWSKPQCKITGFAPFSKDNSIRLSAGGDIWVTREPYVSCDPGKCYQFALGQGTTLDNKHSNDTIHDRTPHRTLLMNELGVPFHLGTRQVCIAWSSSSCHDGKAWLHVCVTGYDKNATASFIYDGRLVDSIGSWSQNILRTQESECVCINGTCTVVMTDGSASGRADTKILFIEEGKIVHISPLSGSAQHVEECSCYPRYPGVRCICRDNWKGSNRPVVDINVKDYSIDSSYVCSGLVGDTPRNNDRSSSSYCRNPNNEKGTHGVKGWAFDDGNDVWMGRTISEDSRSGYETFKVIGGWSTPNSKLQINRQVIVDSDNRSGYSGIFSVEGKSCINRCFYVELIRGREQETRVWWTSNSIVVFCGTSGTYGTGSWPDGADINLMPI", "assay": "NA inhibition assay, recombinant influenza virus NA", "format": "biochemical, influenza strain A/Beijing/39/1975 H3N2"}, "[10]": {"settings": "concentrations higher than 10 mM"}, "[11]": {"settings": "microsomal and membrane fractions, concentrations up to 10 mM"}, "[12]": {"settings": "concentrations higher than 5 mM"}, "[13]": {"settings": "concentrations higher than 1 mM"}, "[14]": {"settings": "concentrations higher than 2 mM"}}, "data": [{"smiles": "CCC(CC)O[C@@H]1C=C(C(=O)O)C[C@H](N)[C@H]1NC(C)=O", "note": "[OC, oseltamivir carboxylate]", "values": [{"measurement": "effect on [35S]-GTP-γS binding", "setting": "[1]", "value": "no effect"}, {"measurement": "partial inhibition of all 4 human NAs", "setting": "[2]", "value": "20–40%"}, {"measurement": "inhibition of all 4 human NAs", "setting": "[2]", "value": "no inhibition"}, {"measurement": "inhibition of non-human primate brain NA activity", "setting": "[3]; [10]", "value": "partial inhibition"}, {"measurement": "inhibition of non-human primate brain NA activity", "setting": "[3]; [11]", "value": "no inhibition"}, {"measurement": "inhibitory activity on Neu3", "setting": "recombinant human Neu3; [12]", "value": "partial inhibition"}, {"measurement": "inhibitory activity on Neu3", "setting": "recombinant human Neu3; concentrations up to 5 mM", "value": "no inhibition"}, {"measurement": "activity on GABAA in patch-clamp, on GABA and pentobarbital", "setting": "[4]", "value": "lack of any significant, inhibitory, excitatory or modulatory activity"}, {"measurement": "pharmacological activity on panel targets", "setting": "[5]", "value": "no relevant pharmacological activity"}, {"measurement": "low levels of activity, inhibition/stimulation, on eleven targets", "setting": "[5]", "value": "20–27%"}, {"measurement": "inhibitory activity on Neu2", "setting": "recombinant human Neu2; [12]", "value": "partial inhibition"}, {"measurement": "inhibitory activity on Neu2", "setting": "recombinant human Neu2; concentrations up to 5 mM", "value": "no inhibition"}, {"measurement": "inhibitory activity on Neu1", "setting": "recombinant human Neu1; [13]", "value": "partial inhibition"}, {"measurement": "inhibitory activity on Neu1", "setting": "recombinant human Neu1; concentrations up to 1 mM", "value": "no inhibitory activity"}, {"measurement": "IC50", "setting": "human Neu1", "value": "> 10", "unit": "mM"}, {"measurement": "extrapolated brain Cmax", "setting": "[6]", "value": "~ 77 nM"}, {"measurement": "inhibitory activity on any of the human NAs", "setting": "recombinant human NAs", "value": "no or negligible inhibitory activity"}, {"measurement": "IC50", "setting": "human Neu3", "value": "> 10", "unit": "mM"}, {"measurement": "IC50", "setting": "human Neu2", "value": "> 6", "unit": "mM"}, {"measurement": "inhibitory activity on Neu4", "setting": "recombinant human Neu4; [14]", "value": "trend for an inhibitory activity"}, {"measurement": "inhibitory activity on Neu4", "setting": "recombinant human Neu4; concentrations up to 2 mM", "value": "no inhibition"}, {"measurement": "IC50", "setting": "human Neu4", "value": "> 10", "unit": "mM"}, {"measurement": "IC50", "setting": "[7]", "value": "1.6 to 7.1", "unit": "nM"}, {"measurement": "inhibition of NA activity in rat brain tissue", "setting": "[8]", "value": "no inhibition"}]}, {"smiles": "CCOC(=O)C1=C[C@@H](OC(CC)CC)[C@H](NC(C)=O)[C@@H](N)C1", "note": "[OP, oseltamivir phosphate]", "values": [{"measurement": "effect on [35S]-GTP-γS binding", "setting": "[1]", "value": "no effect"}, {"measurement": "partial inhibition of all 4 human NAs", "setting": "[2]", "value": "20–40%"}, {"measurement": "inhibition of all 4 human NAs", "setting": "[2]", "value": "no inhibition"}, {"measurement": "IC50", "setting": "[9]", "value": "~0.01", "unit": "mM"}, {"measurement": "inhibition of non-human primate brain NA activity", "setting": "[3]; [10]", "value": "partial inhibition"}, {"measurement": "inhibition of non-human primate brain NA activity", "setting": "[3]; [11]", "value": "no inhibition"}, {"measurement": "inhibitory activity on Neu3", "setting": "recombinant human Neu3; [12]", "value": "partial inhibition"}, {"measurement": "inhibitory activity on Neu3", "setting": "recombinant human Neu3; concentrations up to 5 mM", "value": "no inhibition"}, {"measurement": "activity on GABAA in patch-clamp, on GABA and pentobarbital", "setting": "[4]", "value": "lack of any significant, inhibitory, excitatory or modulatory activity"}, {"measurement": "pharmacological activity on panel targets", "setting": "[5]", "value": "no relevant pharmacological activity"}, {"measurement": "low levels of activity, inhibition/stimulation, on eleven targets", "setting": "[5]", "value": "20–41%"}, {"measurement": "inhibitory activity on Neu2", "setting": "recombinant human Neu2; [12]", "value": "partial inhibition"}, {"measurement": "inhibitory activity on Neu2", "setting": "recombinant human Neu2; concentrations up to 5 mM", "value": "no inhibition"}, {"measurement": "inhibitory activity on Neu1", "setting": "recombinant human Neu1; [13]", "value": "partial inhibition"}, {"measurement": "inhibitory activity on Neu1", "setting": "recombinant human Neu1; concentrations up to 1 mM", "value": "no inhibitory activity"}, {"measurement": "extrapolated brain Cmax", "setting": "[6]", "value": "~ 6.7 nM"}, {"measurement": "inhibitory activity on Neu4", "setting": "recombinant human Neu4; [14]", "value": "trend for an inhibitory activity"}, {"measurement": "inhibitory activity on Neu4", "setting": "recombinant human Neu4; concentrations up to 2 mM", "value": "no inhibition"}, {"measurement": "inhibition of NA activity in rat brain tissue", "setting": "[8]", "value": "no inhibition"}]}]}
